Results on 1 molecule are retold here after patent publication US6949558B2, “Enhancement of taxane-based chemotherapy by a CDK1 antagonist” (Yale University, priority 2001, dated 2005).

The subject of experiment [1] is MCF-7 xenografts. In kind it is in vivo. Conditions: adriamycin 2 mg/kg or flavopiridol 15 mg/kg alone, i.p. The source says: Each complete cycle was separated by 2 d without treatment.
This test generates a P value testing the null hypothesis that the survival curves are identical in the overall populations.

For experiment [2], the system named is HeLa cells. Briefly: Apoptosis by DNA content analysis and flow cytometry in HeLa cells. In kind it is cell-based, human. The settings on record: increasing flavopiridol concentrations, 48 h. Background: In flow cytometry, cells or beads pass a laser one at a time.
Experiment [3] deals with survivin expression in MCF-7 cells. Nature of the experiment: Survivin expression by Western blotting in MCF-7 cells. The experiment is classed as cell-based, human. How it is done: (§1) Cell Cultures, Proteins and Antibodies: Breast carcinoma MCF-7 and cervical carcinoma HeLa cells (American Type Culture Collection, Manassas, Va.) were maintained in culture according to the manufacturer's specifications. For treatment with genotoxic agents, HeLa or MCF-7 cells were incubated with vehicle (DMSO) or taxol (2 μM, Sigma Chemical Co., St. Louis, Mo.), adriamycin (100 nM, Sigma), cis-platin (3 μM, Sigma) or subjected to ultraviolet B (UVB) irradiation at 50 or 300 J/m^2. In some experiments, HeLa or MCF-7 treated with taxol, adriamycin or UVB as described above were incubated with inhibitors of transcription (actinomycin D, 1 μg/ml) or translation (cycloheximide, 2 mg/ml) before determination of protein expression by Western blotting. […] A replication-deficient adenovirus encoding wild type survivin (pAd-Survivin) or control encoding Green Fluorescence Protein (pAd-GFP) was generated using the pAd-Easy system as described previously (M. Mesri et al. (2001) J. Clin. Invest. 108: 981-90), and propagated in HEK293 cells with purification by CsCl banding. […] Antibodies to p34^cdc2 or bcl-2 were obtained from Pharmingen (San Diego, Calif.) and R&D, respectively. An antibody to β-actin was from Sigma and antibodies to MPM-2 mitotic phosphoproteins was from Upstate Biotechnology (Lake Placid, N.Y.).
(§2) In some experiments, total RNA was extracted from MCF-7 cells at various time intervals after adriamycin treatment, and hybridized with 32 P-labeled survivin cDNA as described previously. Radioactive bands were detected by autoradiography. […] In other experiments, samples were transferred to nylon membranes and analyzed by Western blotting with antibodies to p34^cdc2 (1 μg/ml), survivin (2 μg/ml), or survivinT34* (5 μg/ml).
Background: A western blot detects proteins with antibodies after separation by electrophoresis.

For experiment [4], the target named is p34^cdc2-cyclin B1 (Homo sapiens, UniProt P06493). Nature of the experiment: In vitro kinase assay with baculovirus-expressed p34^cdc2-cyclin B1. The experiment is classed as biochemical. Conditions: 100 nM flavopiridol. How it is done: (§3) A. In vitro kinase assay. […] Radioactive bands were detected by autoradiography. […] The immune complexesb were analyzed by Western blotting (WB) with an antibody to Thr^34-phosphorylated survivin (a-survivinT34*, top panel) or with an antibody to survivin (a-survivin, lower panel) followed by chemiluminescence. For all panels, relative molecular weight markers in kDa are shown on the left.
Sequence of p34^cdc2-cyclin B1 (P06493 whole entry): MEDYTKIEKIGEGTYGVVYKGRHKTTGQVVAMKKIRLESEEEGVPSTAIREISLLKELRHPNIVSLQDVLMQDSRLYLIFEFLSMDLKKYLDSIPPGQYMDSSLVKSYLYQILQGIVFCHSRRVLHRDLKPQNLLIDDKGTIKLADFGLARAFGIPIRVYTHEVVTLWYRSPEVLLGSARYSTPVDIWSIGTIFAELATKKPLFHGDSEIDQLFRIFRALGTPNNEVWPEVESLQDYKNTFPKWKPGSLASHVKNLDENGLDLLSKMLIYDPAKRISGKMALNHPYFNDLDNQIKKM
Sequence of p34^cdc2-cyclin B1 (P14635 whole entry partner): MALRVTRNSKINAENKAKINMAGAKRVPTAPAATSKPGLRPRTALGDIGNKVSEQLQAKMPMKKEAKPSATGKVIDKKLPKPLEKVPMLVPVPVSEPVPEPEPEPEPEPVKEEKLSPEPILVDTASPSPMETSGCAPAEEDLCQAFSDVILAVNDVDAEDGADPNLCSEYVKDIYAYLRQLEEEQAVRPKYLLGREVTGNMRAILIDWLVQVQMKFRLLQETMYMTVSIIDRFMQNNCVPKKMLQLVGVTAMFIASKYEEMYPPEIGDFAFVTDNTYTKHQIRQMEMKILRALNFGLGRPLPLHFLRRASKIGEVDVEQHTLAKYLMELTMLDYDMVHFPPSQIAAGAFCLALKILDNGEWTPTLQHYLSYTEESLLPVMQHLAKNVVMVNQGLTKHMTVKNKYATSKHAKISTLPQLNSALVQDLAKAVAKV
as §2

In experiment [5] the test system is survivin phosphorylation on Thr^34 in MCF-7 cells. Nature of the experiment: Survivin phosphorylation on Thr^34 in MCF-7 cells. Conditions: flavopiridol in the presence of 100 nM adriamycin. In kind it is cell-based, human. How it is done: as §2
For experiment [6], the target named is T1, p34^cdc2 (Homo sapiens, UniProt P06493).
T1 construct: endogenous in cells; host or cells: HeLa cervical carcinoma cells (ATCC)
T1 sequence (P06493 whole entry): as the sequence (P06493 whole entry) above
T1 sequence (P14635 whole entry partner): as the sequence (P14635 whole entry partner) above
Briefly: H1 phosphorylation by p34^cdc2 immunoprecipitated from treated HeLa cells. In kind it is cell-based. Conditions: increasing concentrations of flavopiridol, 24 h. How it is done:
as §3, §2

Experiment [7] deals with Bcl-2 expression in HeLa cells. Briefly: Bcl-2 expression by Western blotting in HeLa cells. In kind it is cell-based, human. The settings on record: flavopiridol, 48 h. How it is done:
A. Concentration-dependence. […] B. Time-course. […] C. […] The experimental conditions are the same as in A, except that flavopiridol-treated HeLa cells were analyzed by Western blotting with an antibody to Bcl-2. D. Effect of genistein or TNF a on survivin expression. HeLa cells were treated with the tyrosine kinase inhibitor genistein (25 μM) or TNF a (5 ng/ml) for 48 h, harvested and analyzed for survivin expression by Western blotting. For all panels, relative molecular weight markers in kDa are shown on the left. E. Flavopiridol-induced apoptosis. […] The percentage of apoptotic cells with sub-G1DNA content is indicated. Insert, nuclear morphology of apoptosis (DNA fragmentation, chromatin condensation) in untreated or flavopiridol-treated HeLa cells, by DAPI staining.
as §2

Experiment [8] relates to survivin phosphorylation on Thr^34 in HeLa cells. Nature of the experiment: Survivin phosphorylation on Thr^34 in HeLa cells (immunoprecipitation, Western blotting). The experiment is classed as cell-based, human. The settings on record: increasing concentrations of flavopiridol, 24 h. How it is done: as §3, §2
Luciferase values were normalized to β-galactosidase expression.

Experiment [9] has as its system survivin expression in HeLa cells. Briefly: Survivin expression by Western blotting in HeLa cells. In kind it is cell-based, human. How it is done:
as §1, §2
In other experiments, HeLa cells were treated with taxol (0.2 μM) for 16 h followed by the DNA damaging agent adriamycin (100 nM, Sigma) or the nucleoside analog 5-Fluorouracil (500 μM, Sigma) for 8-32 h at 37° C. […] In some experiments, HeLa cells were transfected by lipofectamine with a minimal survivin promoter construct upstream of a luciferase reporter gene (pLuc-cyc1.2), as described (F. Li et al. (1998) Nature 396: 580-584). Cells were treated with taxol (2 μM) or UVB (50 J/m2), and analyzed for changes in luciferase activity at increasing time intervals (12-36 h) in a luminometer. Luciferase values were normalized to β-galactosidase expression. […] The immune complexes were separated by SDS gel electrophoresis and analyzed with antibodies to survivin or a-survivinT34* by Western blotting.

Experiment [10] concerns p34^cdc2 kinase activity (MPM-2 epitope) in HeLa cells. Briefly: MPM-2 mitotic phosphoepitope expression (p34^cdc2 kinase activity) in HeLa cells. Conditions: HeLa. In kind it is cell-based, human.

With `CN1CC[C@H](c2c(O)cc(O)c3c(=O)cc(-c4ccccc4Cl)oc23)[C@H](O)C1` [flavopiridol], the “kinetics of tumor growth vs vehicle” value in experiment [1] is “did not affect the kinetics of tumor growth”. Besides, the “population with hypodiploid (apoptotic) DNA content” value in experiment [2] is reported as “concentration-dependent increase in the population with hypodiploid (apoptotic) DNA content”. The survivin levels result in [3] (anti-cancer agents (adriamycin, UVB) 18 h followed by flavopiridol 72 h) is given as “suppressed survivin levels to background values of untreated cultures”; in experiment [3] (flavopiridol alone 100 nM for 72 h), “did not significantly affect survivin levels”. In [4], the “phosphorylation of H1 and wild type survivin by p34^cdc2-cyclin B1” value is “suppressed phosphorylation of H1 and wild type survivin”. Moreover, the figures for the “survivin phosphorylation on Thr^34” value in [5] and in experiment [8] were “suppressed survivin phosphorylation on Thr^34” and “concentration-dependent inhibition of phosphorylation on Thr^34”, respectively. The “H1 phosphorylation by immunoprecipitated p34^cdc2” value in experiment [6] is “dose-dependent inhibition of H1 phosphorylation”. In experiment [7], the Bcl-2 expression entry is “did not affect expression of antiapoptotic Bcl-2”. For the same molecule, the survivin expression result in experiment [9] (1 and 25 nM flavopiridol and between 12 and 72 hours) was “modest increase in survivin expression”; in [9] (flavopiridol 100 nM, 84-96 h treatment) it was “Nearly complete loss of survivin expression”; in experiment [9] (higher flavopiridol concentrations, 24 h), “complete loss of survivin expression”. Moreover, the “survivin expression, concentration dependence” value in experiment [9] (increasing flavopiridol concentrations, 48 h) is on record as “concentration-dependent decrease in survivin expression”. Moreover, the “MPM-2 mitotic phosphoepitope expression” value in experiment [10] (taxol 0.2 μM 16 h then Cdk inhibitor for 16 h (Purvalanol A 10 μM, alsterpaullone 20 μM, flavopiridol 250 nM, olomoucine 400 μM)) is “partially inhibited MPM-2 expression”; in [10] (taxol 0.2 μM 16 h then Cdk inhibitor for 32 h), “suppressed mitotic phosphoprotein expression”.
